What was measured:
[1] = target: T1, IKZF1 (Homo sapiens, UniProt Q13422+Q96SW2); assay: Western blot degradation of IKZF1 in hPBMCs (24 h); type: cell-based; conditions: compounds at 50 nM and 500 nM
T1 construct: The supernatant was aspirated as the extracted total cell protein; endogenous in cells; host or cells: human peripheral blood mononuclear cells (hPBMCs)
Procedure, shortened: (§1)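 Compounds were tested at 50 nM and 500 nM on hPBMCs (1×10^6 cells/mL) for 24 h, alongside DMSO. Proteins were detected by Western blot after denaturation at 95 °C; remaining protein computed from normalised band grayscale.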

[2] = system: MV-4-11 cells; assay: Inhibition of proliferation of myeloid monocytic leukemia cells MV-4-11 (cell viability assay, 96 h); type: cell-based, human; conditions: read-out: inhibitory activity (IC50) against tumor cells proliferation, MV-4-11
Protocol: (§2) The tumor cells used herein were cultured in a cell culture medium listed in table 2 at 37 °C in an incubator with 5% CO2. Prior to experimentation, all cell lines used were correctly identified by STR profiling, and tested negative for Mycoplasma contamination using a Mycoplasma detection kit through routine screenings.
(§3) The IC50 values of the compounds of the present disclosure (including the compounds in Table 1, and Examples 1-498) were determined using the CellTiter-Meiluncell Luminescent Cell Viability Assay Kit from Dalian Meilun Biotech Co., Ltd. The detailed procedure is as follows: Tumor cells were seeded in 96-well cell culture plates at the densities specified in Table 3. On the following day, the test compounds of the present disclosure were subjected to serial dilution. […] Subsequently, 0.5 μL of the test compound dilution was transferred into the 96-well plate containing the cells, with each well containing 100 μL of cell culture medium. […] Into the 96-well plate, the diluted test compounds and corresponding detection reagents were added, resulting in final test compound concentrations of 500 nM and 10 nM, respectively. The experimental procedure is described below using the diluted 2 μM test compound as an example.
(§4) 0.5 μL of the aforementioned diluted compound of the present disclosure (including the compounds in Table 1, and Examples 1-498) was added to the seeded cells in 100 μL of medium, yielding a final test compound concentration of 10 nM. After the cells were treated with the compounds of the present disclosure for a specified period, the cell viability assay reagent was added to the culture medium according to the kit's instructions to determine cell viability. […] All controls were treated using the same procedure as the compounds of the present disclosure. The growth inhibition curves for the compounds of the present disclosure were plotted using Prism GraphPad software, and the IC50 values were calculated therefrom.

[3] = target: T2, IKZF3 (Homo sapiens, UniProt Q96SW2+Q9UKT9); assay: Western blot degradation of IKZF3 in hPBMCs (24 h); type: cell-based; conditions: compounds at 50 nM and 500 nM
T2 construct: The supernatant was aspirated as the extracted total cell protein; endogenous in cells; host or cells: human peripheral blood mononuclear cells (hPBMCs)
Procedure, shortened: as §1

[4] = target: T3, CK1α (Homo sapiens, UniProt P48729+Q96SW2); assay: Western blot degradation of CK1α in hPBMCs (24 h); type: cell-based; conditions: compounds at 50 nM and 500 nM
T3 construct: The supernatant was aspirated as the extracted total cell protein; endogenous in cells; host or cells: human peripheral blood mononuclear cells (hPBMCs)
Procedure, shortened: as §1

[5] = target: T4, IKZF2 (Homo sapiens, UniProt Q96SW2+Q9UKS7); assay: Western blot degradation of IKZF2 in hPBMCs (24 h); type: cell-based; conditions: compounds at 50 nM and 500 nM
T4 construct: The supernatant was aspirated as the extracted total cell protein; endogenous in cells; host or cells: human peripheral blood mononuclear cells (hPBMCs)
Procedure, shortened: as §1

[6] = target: T5, GSPT1 (Homo sapiens, UniProt P15170+Q96SW2); assay: Western blot degradation of GSPT1 in hPBMCs (24 h); type: cell-based; conditions: compounds at 50 nM and 500 nM
T5 construct: The supernatant was aspirated as the extracted total cell protein; endogenous in cells; host or cells: human peripheral blood mononuclear cells (hPBMCs)
Procedure, shortened: as §1

[7] = target: T6, WEE1 (Homo sapiens, UniProt P30291+Q96SW2); assay: Western blot degradation of WEE1 in hPBMCs (24 h); type: cell-based; conditions: compounds at 50 nM and 500 nM
T6 construct: The supernatant was aspirated as the extracted total cell protein; endogenous in cells; host or cells: human peripheral blood mononuclear cells (hPBMCs)
Procedure, shortened: as §1

[8] = system: Jurkat cells; assay: Inhibition of proliferation of T lymphocytic leukemia cells Jurkat (cell viability assay, 96 h); type: cell-based, human; conditions: read-out: inhibitory activity (IC50) against tumor cells proliferation, Jurkat
Protocol: as §2, §3, §4

[9] = system: MM.1S cells; assay: Inhibition of proliferation of multiple myeloma cells MM.1S (cell viability assay, 96 h); type: cell-based, human; conditions: read-out: inhibitory activity (IC50) against tumor cells proliferation, MM.1S

T6 sequence (P30291 whole entry): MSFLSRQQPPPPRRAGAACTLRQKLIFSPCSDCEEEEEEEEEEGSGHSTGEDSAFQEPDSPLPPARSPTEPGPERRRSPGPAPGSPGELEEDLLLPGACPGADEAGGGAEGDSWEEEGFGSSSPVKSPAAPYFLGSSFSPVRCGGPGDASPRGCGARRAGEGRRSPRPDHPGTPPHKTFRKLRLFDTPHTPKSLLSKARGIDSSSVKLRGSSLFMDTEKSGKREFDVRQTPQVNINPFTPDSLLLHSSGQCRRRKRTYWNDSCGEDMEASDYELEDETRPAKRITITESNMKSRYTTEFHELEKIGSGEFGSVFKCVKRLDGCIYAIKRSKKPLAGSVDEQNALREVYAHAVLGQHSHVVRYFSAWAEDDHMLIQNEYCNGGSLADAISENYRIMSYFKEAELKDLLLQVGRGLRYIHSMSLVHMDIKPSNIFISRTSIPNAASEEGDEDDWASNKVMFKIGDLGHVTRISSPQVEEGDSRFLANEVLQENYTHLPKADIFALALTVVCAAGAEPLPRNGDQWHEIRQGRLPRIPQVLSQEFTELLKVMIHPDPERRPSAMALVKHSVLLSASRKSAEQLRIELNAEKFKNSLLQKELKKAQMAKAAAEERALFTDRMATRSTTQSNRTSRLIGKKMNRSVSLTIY
T6 sequence (Q96SW2 whole entry): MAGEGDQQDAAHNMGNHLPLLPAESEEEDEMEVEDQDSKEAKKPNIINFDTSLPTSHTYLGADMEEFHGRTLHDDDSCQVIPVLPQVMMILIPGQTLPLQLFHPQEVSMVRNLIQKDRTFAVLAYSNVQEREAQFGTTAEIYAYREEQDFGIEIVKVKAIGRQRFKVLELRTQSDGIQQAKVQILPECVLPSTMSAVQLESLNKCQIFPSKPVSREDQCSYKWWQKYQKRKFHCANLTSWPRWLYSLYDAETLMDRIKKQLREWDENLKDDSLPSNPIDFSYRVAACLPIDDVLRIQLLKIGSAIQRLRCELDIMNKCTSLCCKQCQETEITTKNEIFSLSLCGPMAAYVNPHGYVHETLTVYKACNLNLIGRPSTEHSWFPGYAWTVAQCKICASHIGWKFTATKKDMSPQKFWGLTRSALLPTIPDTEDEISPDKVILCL
T6 sequence (Q16531 whole entry partner): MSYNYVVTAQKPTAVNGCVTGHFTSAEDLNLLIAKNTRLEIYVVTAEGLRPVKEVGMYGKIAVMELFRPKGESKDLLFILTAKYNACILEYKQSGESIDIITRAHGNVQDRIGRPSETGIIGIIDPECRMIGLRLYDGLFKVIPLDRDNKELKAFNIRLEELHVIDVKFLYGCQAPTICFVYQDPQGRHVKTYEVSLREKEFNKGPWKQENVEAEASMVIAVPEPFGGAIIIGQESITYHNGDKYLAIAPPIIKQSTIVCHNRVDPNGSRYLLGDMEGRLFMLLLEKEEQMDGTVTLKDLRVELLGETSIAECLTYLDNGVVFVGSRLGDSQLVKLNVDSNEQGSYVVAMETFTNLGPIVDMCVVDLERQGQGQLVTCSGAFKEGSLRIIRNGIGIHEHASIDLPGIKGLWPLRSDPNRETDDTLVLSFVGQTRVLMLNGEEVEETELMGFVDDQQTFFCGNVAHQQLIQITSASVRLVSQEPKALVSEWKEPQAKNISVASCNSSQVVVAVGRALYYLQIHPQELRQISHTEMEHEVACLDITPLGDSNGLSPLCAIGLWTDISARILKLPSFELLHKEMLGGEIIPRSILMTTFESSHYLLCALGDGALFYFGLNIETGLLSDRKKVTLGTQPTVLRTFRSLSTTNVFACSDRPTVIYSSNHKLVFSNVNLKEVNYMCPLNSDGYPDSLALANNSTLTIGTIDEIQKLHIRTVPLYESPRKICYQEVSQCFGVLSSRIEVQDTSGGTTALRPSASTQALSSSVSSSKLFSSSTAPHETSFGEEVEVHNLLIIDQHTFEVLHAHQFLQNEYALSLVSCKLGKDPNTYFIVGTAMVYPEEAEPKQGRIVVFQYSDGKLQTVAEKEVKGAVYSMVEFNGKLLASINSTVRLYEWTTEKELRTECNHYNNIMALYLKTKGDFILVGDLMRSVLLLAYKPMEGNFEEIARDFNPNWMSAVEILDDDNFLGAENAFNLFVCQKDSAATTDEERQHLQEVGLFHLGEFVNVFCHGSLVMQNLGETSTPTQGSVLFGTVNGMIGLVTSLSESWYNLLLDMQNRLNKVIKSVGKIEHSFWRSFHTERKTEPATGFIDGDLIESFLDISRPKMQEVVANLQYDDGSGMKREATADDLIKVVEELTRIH
T1 sequence (Q13422 whole entry): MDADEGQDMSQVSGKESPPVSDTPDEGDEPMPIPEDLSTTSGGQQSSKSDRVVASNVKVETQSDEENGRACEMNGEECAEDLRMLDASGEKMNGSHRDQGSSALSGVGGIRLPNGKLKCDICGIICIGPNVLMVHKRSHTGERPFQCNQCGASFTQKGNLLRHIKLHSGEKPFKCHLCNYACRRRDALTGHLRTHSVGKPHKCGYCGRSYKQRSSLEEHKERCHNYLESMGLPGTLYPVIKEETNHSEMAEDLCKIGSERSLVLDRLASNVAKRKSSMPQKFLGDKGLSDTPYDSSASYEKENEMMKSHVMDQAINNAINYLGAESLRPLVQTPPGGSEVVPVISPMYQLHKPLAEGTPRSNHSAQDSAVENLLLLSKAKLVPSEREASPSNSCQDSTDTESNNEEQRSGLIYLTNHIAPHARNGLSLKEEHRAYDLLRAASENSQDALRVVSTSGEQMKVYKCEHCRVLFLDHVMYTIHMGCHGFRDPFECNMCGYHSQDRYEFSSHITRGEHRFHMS
T1 sequence (Q96SW2 whole entry): as the sequence (Q96SW2 whole entry) above
T1 sequence (Q16531 whole entry partner): as the sequence (Q16531 whole entry partner) above
T3 sequence (P48729 whole entry): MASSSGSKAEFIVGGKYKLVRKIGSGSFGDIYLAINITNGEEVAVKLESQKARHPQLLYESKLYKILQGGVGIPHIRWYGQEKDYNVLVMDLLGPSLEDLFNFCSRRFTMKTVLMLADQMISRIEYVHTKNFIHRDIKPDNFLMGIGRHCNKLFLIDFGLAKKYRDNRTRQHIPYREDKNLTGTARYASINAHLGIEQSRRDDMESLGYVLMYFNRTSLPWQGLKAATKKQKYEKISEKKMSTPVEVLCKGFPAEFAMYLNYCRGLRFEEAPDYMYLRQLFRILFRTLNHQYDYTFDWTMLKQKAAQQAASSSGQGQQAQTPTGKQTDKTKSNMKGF
T3 sequence (Q96SW2 whole entry): as the sequence (Q96SW2 whole entry) above
T3 sequence (Q16531 whole entry partner): as the sequence (Q16531 whole entry partner) above
T5 sequence (P15170 whole entry): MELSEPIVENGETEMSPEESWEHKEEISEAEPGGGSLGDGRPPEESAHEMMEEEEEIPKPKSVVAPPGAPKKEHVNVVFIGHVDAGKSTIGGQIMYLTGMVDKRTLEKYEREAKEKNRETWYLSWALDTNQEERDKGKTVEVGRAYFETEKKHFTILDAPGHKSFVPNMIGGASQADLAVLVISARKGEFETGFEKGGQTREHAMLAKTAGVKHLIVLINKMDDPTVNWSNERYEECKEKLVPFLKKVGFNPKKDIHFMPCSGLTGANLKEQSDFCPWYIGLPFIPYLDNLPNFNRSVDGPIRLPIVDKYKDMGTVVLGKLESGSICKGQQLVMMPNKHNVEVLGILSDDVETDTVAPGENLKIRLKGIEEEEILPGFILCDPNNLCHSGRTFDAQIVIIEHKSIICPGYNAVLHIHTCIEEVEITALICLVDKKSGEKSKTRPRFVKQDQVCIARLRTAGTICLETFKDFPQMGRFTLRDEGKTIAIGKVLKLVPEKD
T5 sequence (Q96SW2 whole entry): as the sequence (Q96SW2 whole entry) above
T5 sequence (Q16531 whole entry partner): as the sequence (Q16531 whole entry partner) above
T4 sequence (Q9UKS7 whole entry): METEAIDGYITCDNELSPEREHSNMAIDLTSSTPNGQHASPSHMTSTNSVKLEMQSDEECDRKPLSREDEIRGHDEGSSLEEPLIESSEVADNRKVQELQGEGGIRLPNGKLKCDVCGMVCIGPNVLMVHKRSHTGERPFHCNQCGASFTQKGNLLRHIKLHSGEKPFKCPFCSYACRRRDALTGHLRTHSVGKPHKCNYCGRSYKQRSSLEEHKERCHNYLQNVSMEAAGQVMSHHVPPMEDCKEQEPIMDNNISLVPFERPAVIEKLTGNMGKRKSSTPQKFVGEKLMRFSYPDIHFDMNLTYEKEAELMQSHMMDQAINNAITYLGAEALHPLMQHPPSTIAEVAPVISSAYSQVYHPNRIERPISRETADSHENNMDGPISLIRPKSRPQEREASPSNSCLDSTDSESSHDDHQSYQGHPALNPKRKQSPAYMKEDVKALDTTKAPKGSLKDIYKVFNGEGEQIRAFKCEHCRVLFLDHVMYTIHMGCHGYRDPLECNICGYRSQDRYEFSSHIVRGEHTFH
T4 sequence (Q96SW2 whole entry): as the sequence (Q96SW2 whole entry) above
T4 sequence (Q16531 whole entry partner): as the sequence (Q16531 whole entry partner) above

SMILES	IKZF1 substrate protein remaining % [1]	IC50 [2]	IKZF3 substrate protein remaining % [3]	CK1α substrate protein remaining % [4]	IKZF2 substrate protein remaining % [5]	GSPT1 substrate protein remaining % [6]	WEE1 substrate protein remaining % [7]	IC50 [8]	IC50 [9]
O=C1CCN(N2Cc3cc(CN4CCN(c5ccccc5)CC4)ccc3C2=O)C(=O)N1 [GT-06696, 1-(1-oxo-5-((4-phenylpiperazin-1-yl)methyl)isoindolin-2-yl)dihydropyrimidine-2,4(1H,3H)-dione]	B (80%< substrate protein remaining % ≤100%)	0.1 to 0.3 µM	B (80%< substrate protein remaining % ≤100%)	B (80%< substrate protein remaining % ≤100%)	B (80%< substrate protein remaining % ≤100%)	A (0% ≤ substrate protein remaining % ≤80%)	B (80%< substrate protein remaining % ≤100%)	–	–
O=C1CCN(N2Cc3cc(CN4CCN(c5cccc(Br)c5)CC4)ccc3C2=O)C(=O)N1 [GT-06698, 1-(5-((4-(3-bromophenyl)piperazin-1-yl)methyl)-1-oxoisoindolin-2-yl)dihydropyrimidine-2,4(1H,3H)-dione]	B (80%< substrate protein remaining % ≤100%)	0.1 to 0.3 µM	B (80%< substrate protein remaining % ≤100%)	B (80%< substrate protein remaining % ≤100%)	B (80%< substrate protein remaining % ≤100%)	A (0% ≤ substrate protein remaining % ≤80%)	B (80%< substrate protein remaining % ≤100%)	–	–
COc1cccc(N2CCN(Cc3ccc4c(c3)CN(N3CCC(=O)NC3=O)C4=O)CC2)c1 [GT-06699, 1-(5-((4-(3-methoxyphenyl)piperazin-1-yl)methyl)-1-oxoisoindolin-2-yl)dihydropyrimidine-2,4(1H,3H)-dione]	B (80%< substrate protein remaining % ≤100%)	0.1 to 0.3 µM	B (80%< substrate protein remaining % ≤100%)	B (80%< substrate protein remaining % ≤100%)	B (80%< substrate protein remaining % ≤100%)	A (0% ≤ substrate protein remaining % ≤80%)	B (80%< substrate protein remaining % ≤100%)	–	–
O=C1CCN(N2Cc3cc(CN4CCN(c5ccc(C(F)(F)F)cc5)CC4)ccc3C2=O)C(=O)N1 [GT-06700, 1-(1-oxo-5-((4-(4-(trifluoromethyl)phenyl)piperazin-1-yl)methyl)isoindolin-2-yl)dihydropyrimidine-2,4(1H,3H)-dione]	–	0.05 to 0.1 µM	–	–	–	–	–	–	–
O=C1CCN(N2Cc3cc(CN4CCN(c5ccc(F)cc5)CC4)ccc3C2=O)C(=O)N1 [GT-06702, 1-(5-((4-(4-fluorophenyl)piperazin-1-yl)methyl)-1-oxoisoindolin-2-yl)dihydropyrimidine-2,4(1H,3H)-dione]	B (80%< substrate protein remaining % ≤100%)	0.5 to 1 µM	B (80%< substrate protein remaining % ≤100%)	A (0% ≤ substrate protein remaining % ≤80%)	B (80%< substrate protein remaining % ≤100%)	A (0% ≤ substrate protein remaining % ≤80%)	B (80%< substrate protein remaining % ≤100%)	–	–
O=C1CCN(N2Cc3cc(CN4CCN(c5ccccc5Cl)CC4)ccc3C2=O)C(=O)N1 [GT-06703, 1-(5-((4-(2-chlorophenyl)piperazin-1-yl)methyl)-1-oxoisoindolin-2-yl)dihydropyrimidine-2,4(1H,3H)-dione]	B (80%< substrate protein remaining % ≤100%)	0.5 to 1 µM	B (80%< substrate protein remaining % ≤100%)	A (0% ≤ substrate protein remaining % ≤80%)	B (80%< substrate protein remaining % ≤100%)	A (0% ≤ substrate protein remaining % ≤80%)	B (80%< substrate protein remaining % ≤100%)	–	–
O=C1CCN(N2Cc3cc(CN4CCC(c5cccs5)CC4)ccc3C2=O)C(=O)N1 [GT-07511, 1-(1-oxo-5-((4-(thiophen-2-yl)piperidin-1-yl)methyl)isoindolin-2-yl)dihydropyrimidine-2,4(1H,3H)-dione]	A (0% ≤ substrate protein remaining % ≤80%)	–	B (80%< substrate protein remaining % ≤100%)	A (0% ≤ substrate protein remaining % ≤80%)	A (0% ≤ substrate protein remaining % ≤80%)	A (0% ≤ substrate protein remaining % ≤80%)	A (0% ≤ substrate protein remaining % ≤80%)	0.5 to 1 µM	0.5 to 1 µM
Cn1cc(C2CCN(Cc3ccc4c(c3)CN(N3CCC(=O)NC3=O)C4=O)CC2)c2ccc(F)cc21 [GT-07575, 1-(5-((4-(6-fluoro-1-methyl-1H-indol-3-yl)piperidin-1-yl)methyl)-1-oxoisoindolin-2-yl)dihydropyrimidine-2,4(1H,3H)-dione]	A (0% ≤ substrate protein remaining % ≤80%)	–	A (0% ≤ substrate protein remaining % ≤80%)	A (0% ≤ substrate protein remaining % ≤80%)	A (0% ≤ substrate protein remaining % ≤80%)	A (0% ≤ substrate protein remaining % ≤80%)	A (0% ≤ substrate protein remaining % ≤80%)	0.1 to 0.3 µM	0.1 to 0.3 µM
O=C1CCN(N2Cc3cc(CN4CC=C(c5c[nH]c6ncccc56)CC4)ccc3C2=O)C(=O)N1 [GT-07577, 1-(5-((4-(1H-pyrrolo[2,3-b]pyridin-3-yl)-3,6-dihydropyridin-1 (2H)-yl)methyl)-1-oxoisoindolin-2-yl)dihydropyrimidine-2,4(1H,3H)-dione]	A (0% ≤ substrate protein remaining % ≤80%)	–	A (0% ≤ substrate protein remaining % ≤80%)	A (0% ≤ substrate protein remaining % ≤80%)	B (80%< substrate protein remaining % ≤100%)	A (0% ≤ substrate protein remaining % ≤80%)	A (0% ≤ substrate protein remaining % ≤80%)	0.5 to 1 µM	0.3 to 0.5 µM
O=C1CCN(N2Cc3cc(CN4CC=C(c5n[nH]c6cc(F)ccc56)CC4)ccc3C2=O)C(=O)N1 [GT-07578, 1-(5-((4-(6-fluoro-1H-indazol-3-yl)-3,6-dihydropyridin-1(2H)-yl)methyl)-1-oxoisoindolin-2-yl)dihydropyrimidine-2,4(1H,3H)-dione]	A (0% ≤ substrate protein remaining % ≤80%)	–	B (80%< substrate protein remaining % ≤100%)	B (80%< substrate protein remaining % ≤100%)	A (0% ≤ substrate protein remaining % ≤80%)	A (0% ≤ substrate protein remaining % ≤80%)	A (0% ≤ substrate protein remaining % ≤80%)	0.05 to 0.1 µM	0.05 to 0.1 µM
O=C1CCN(N2Cc3cc(CN4CC=C(c5cccc6c(F)cccc56)CC4)ccc3C2=O)C(=O)N1 [GT-07590, 1-(5-((4-(5-fluoronaphthalen-1-yl)-3,6-dihydropyridin-1(2H)-yl)methyl)-1-oxoisoindolin-2-yl)dihydropyrimidine-2,4(1H,3H)-dione]	A (0% ≤ substrate protein remaining % ≤80%)	–	A (0% ≤ substrate protein remaining % ≤80%)	B (80%< substrate protein remaining % ≤100%)	A (0% ≤ substrate protein remaining % ≤80%)	A (0% ≤ substrate protein remaining % ≤80%)	A (0% ≤ substrate protein remaining % ≤80%)	0.05 to 0.1 µM	0.01 to 0.05 µM

Reference: patent publication US20260356819A1, “OXOISOINDOLINYL-SUBSTITUTED […] DERIVATIVE AND USE THEREOF” (GLUETACS THERAPEUTICS (SHANGHAI) CO., LTD., priority 2023, published 2026)
